The values that follow come from publication PMC7401255, “Osirisynes G-I, New Long-Chain Highly Oxygenated Polyacetylenes from the Mayotte Marine Sponge Haliclona sp” (Marine Drugs, 2020).

One assay addresses T1, FynB wt (Homo sapiens, UniProt P06241).
T1 construct: Crelux construct CTX4, PC09815-1
The assay can be described thus: FynB kinase inhibition assay (ADP-Glo Kinase Assay). Type of assay: biochemical. The protocol:
The assay buffer contained 20 mM Tris pH 8.0, 170 mM NaCl, and 10 mM MgCl2.
For the selected hits, 9.5 µL protein dilution (final concentration 200 nM) were mixed with 0.5 µL of compound dilution ranging from 1–0.0005 mg/mL (assay end conc. 33–0.016 μg/mL) and preincubated for 90 min.
Then, 5 µL substrate/ATP mix was added (final concentration substrate 10 µM and ATP 100 µM) and the assay was incubated for another 2 h. Afterwards, 5 µL of the 15 µL assay reaction were transferred to new wells and 5 µL ADP Glo Reagent was added to terminate the kinase reaction and deplete the remaining ATP. After 40 min, 10 µL of Kinase Detection Reagent was added to convert ADP to ATP and allow the newly synthesized ATP to be measured using a luciferase/luciferin reaction. After another 40 min, the assay plates were measured in Luminescence mode on a Tecan M1000 plate reader. The light generated, i.e., luminescent signal, is proportional to the ADP concentration produced and is correlated with kinase activity. The IC50 was calculated using XLfit.
(In general: ADP-Glo turns the ADP formed in a reaction into a luminescent signal.)

The target in a further assay is T2, Yeast proteasome (Saccharomyces cerevisiae, UniProt P30656).
T2 construct: TUM Groll group (academic supplier)
In words: Proteasome inhibition assay (fluorescence intensity, Suc-Leu-Leu-Val-Tyr-AMC). The note with it: 9 nM yeast proteasome, 5 µM substrate, preincubated 90 min, 22 °C. Type of assay: biochemical. The protocol: The assay was carried out at room temperature (22 °C) using Corning 4514 black low volume 384-well plates. All measurements were performed in duplicate and the final DMSO concentration was 3.3%. The assay buffer contained 100 mM Tris pH 7.5 and 1 mM MgCl2. (Table 5).
For the positive control, 9.5 µL protein dilution (final concentration 9 nM) were mixed with 0.5 µL of compound dilution ranging from 30–0.015 μM (assay end conc. 1000–0.5 nM). For the selected hits, 9.5 µL protein dilution (final concentration 9 nM) were mixed with 0.5 µL of compound dilution ranging from 1–0.0005 mg/mL (assay end conc. 33–0.016 μg/mL) and preincubated for 90 min. Then, 5 µL substrate mix was added (final concentration 5 µM) and incubated for 60 min. The assay plates were measured in Fluorescence mode on a Tecan M1000 plate reader (ex 380 nm, em 460 nm). The IC50 was calculated using XLfit.
For assay set-up and validation, the tool compound ONX-0914 was utilized. For this tool compound, a dose-dependent decrease in the Fluorescence signal was observed similar to previous results.

In another assay the target is T3, CDK7 (Homo sapiens, UniProt P50613).
T3 construct: Crelux construct CZY-3, PC09891
In words: CDK7 inhibition assay (ADP-Glo Kinase Assay). The settings on record: for IC50: 300 nM CDK7, 30 µM CDKtide, 125 µM ATP, preincubated 120 min, 22 °C. It is filed as biochemical. The method, then:
The assay was carried out at room temperature (22 °C) using Corning white low volume 384-well plates. […]. The assay buffer contained 20 mM Hepes pH 7.0, 150 mM NaCl, and 10 mM MgCl2. (Table 4).
For the positive control, 9.5 µL protein dilution (final concentration 300 nM) were mixed with 0.5 µL of compound dilution ranging from 990–0.006 μM (assay end conc. 33–0.0002 μM). For the selected hits, 9.5 µL protein dilution (final concentration 300 nM) were mixed with 0.5 µL of compound dilution ranging from 1–0.0005 mg/mL (assay end conc. 33–0.016 μg/mL) and preincubated for 120 min.
Then, 5 µL substrate/ATP mix was added (final concentration substrate 30 µM and ATP 125 µM) and the assay was incubated for another 2 h. Afterwards, 5 µL of the 15 µL assay reaction were transferred to new wells and 5 μL ADP Glo Reagent was added to terminate the kinase reaction and deplete the remaining ATP. After 40 min, 10 µL of Kinase Detection Reagent was added to convert ADP to ATP and allow the newly synthesized ATP to be measured using a luciferase/luciferin reaction. After another 40 min, the assay plates were measured in Luminescence mode on a Tecan M1000 plate reader.
The light generated, i.e., luminescent signal, is proportional to the ADP concentration produced and is correlated with kinase activity. The IC50 was calculated using XLfit.

In another assay the test system is Na+/K+ ATPase. Also on record: method as in doi:10.1016/S0040-4039(00)96493-1. The settings on record: cited from earlier work.
The test system of assay [1] is reverse transcriptase (RT). Also on record: method as in doi:10.1016/S0040-4039(00)96493-1. The settings on record: cited from earlier work.
Where [2] appears, read: 200 nM FynB wt, 10 µM Fyn substrate, 100 µM ATP, preincubated 90 min, 22 °C, read-out: IC50 FynB Kinase Inhibition.

Structures are written as SMILES. Like-named read-outs stand apart in the source and are kept apart here.

As usually defined, the IC50 is the concentration that gives 50% inhibition.

T1 sequence (P06241 whole entry): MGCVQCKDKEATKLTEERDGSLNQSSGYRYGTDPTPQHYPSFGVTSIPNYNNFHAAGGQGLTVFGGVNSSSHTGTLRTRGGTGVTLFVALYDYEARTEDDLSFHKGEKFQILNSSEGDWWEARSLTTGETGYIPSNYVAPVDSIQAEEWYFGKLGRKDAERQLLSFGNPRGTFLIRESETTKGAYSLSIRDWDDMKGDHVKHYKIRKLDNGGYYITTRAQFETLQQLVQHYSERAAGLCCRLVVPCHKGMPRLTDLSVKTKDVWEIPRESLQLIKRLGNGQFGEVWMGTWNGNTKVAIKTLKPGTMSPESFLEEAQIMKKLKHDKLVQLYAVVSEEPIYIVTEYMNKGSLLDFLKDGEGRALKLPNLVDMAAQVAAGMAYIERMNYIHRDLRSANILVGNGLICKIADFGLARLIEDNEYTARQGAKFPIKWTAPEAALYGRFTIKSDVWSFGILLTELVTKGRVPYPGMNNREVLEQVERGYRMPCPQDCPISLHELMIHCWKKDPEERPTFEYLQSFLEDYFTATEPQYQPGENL
T3 sequence (P50613 whole entry, species assumed): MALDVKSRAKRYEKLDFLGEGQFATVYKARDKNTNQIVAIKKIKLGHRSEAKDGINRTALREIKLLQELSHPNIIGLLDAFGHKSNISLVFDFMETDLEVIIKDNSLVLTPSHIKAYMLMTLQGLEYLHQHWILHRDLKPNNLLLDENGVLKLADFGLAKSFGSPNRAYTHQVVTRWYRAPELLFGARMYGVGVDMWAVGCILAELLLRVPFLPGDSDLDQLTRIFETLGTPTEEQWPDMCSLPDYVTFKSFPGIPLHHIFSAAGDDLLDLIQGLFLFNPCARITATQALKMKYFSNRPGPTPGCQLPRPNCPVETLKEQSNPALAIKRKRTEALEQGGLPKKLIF

Take `C#CC(O)/C=C/C(O)CCCC(O)CC#CC(O)C#CC(O)CCCC(O)/C=C/CCCCCC(=O)CCCCCCCCCCCCCC(O)C(O)C#CC(=O)O` (stereo not shown) [Osirisyne A (4), osirisyne A]: the IC50 on FynB wt (setting [2]) and against Yeast proteasome was > 41 µM each time.
Turning to `C#CC(O)/C=C/C(O)CCCC(O)CC#CC(O)C#CCCCCC(O)/C=C/CCCCCC(=O)CCCCCCCCCCCCCC(O)C(O)C#CC(=O)O` (stereo not shown) [Osirisyne B (5), osirisyne B], the “Fyn kinase inhibition (in words)” value on FynB wt is given as “inhibited”. The IC50 at FynB wt (setting [2]) came out at 18.4 µM; against CDK7, 9.13 µM; against Yeast proteasome, 0.26 µM. The “CDK7 inhibition (in words)” value at CDK7 is listed as “inhibited”.
For the compound `C#CC(O)/C=C/C(O)CCCC(O)CC#CC(O)C#CCCCCC(O)/C=C/CCCC(O)/C=C/CCCCCCCCCCCCCC(O)C(O)C#CC(=O)O` (stereo not shown) [Osirisyne E (6), osirisyne E], the “Fyn kinase inhibition (in words)” value on FynB wt is on record as “inhibited”. Further, the IC50 on FynB wt (setting [2]), at CDK7 and against Yeast proteasome was > 41.8 µM each time. Also, on CDK7, the “CDK7 inhibition (in words)” value is given as “inhibited”. Further, the “Na+/K+ ATPase inhibitory activity (in words)” value with Na+/K+ ATPase was “inhibitory activities”. Moreover, in assay [1], the “reverse transcriptase (RT) inhibitory activity (in words)” value is recorded as “inhibitory activities”.
On to `C#CC(O)/C=C/C(O)CCCC(O)CC#CC(O)C#CC(O)CCCC(O)/C=C/CCCCCC(=O)CCCCCCCCCCCCC(O)C(O)C(O)C#CC(=O)O` (stereo not shown) [Osirisyne G (1), osirisyne G], for which the IC50 on FynB wt (setting [2]) and at Yeast proteasome was > 40.2 µM throughout.
As to `C#CC(O)/C=C/C(O)CCCC(O)CC#CC(O)C#CCCCCC(O)/C=C/CCCCCC(=O)CCCCCCCCCCCCC(O)C(O)C(O)C#CC(=O)O` (stereo not shown) [Osirisyne H (2), osirisyne H], the half-inhibitory concentration (IC50) at FynB wt was > 41 µM.
Turning to `C#CC(O)/C=C/C(O)CCCC(O)CC#CC(O)C#CC(O)CCCC(O)/C=C/CCCC(O)/C=C/CCCCCCCCCCCCCC(O)C(O)C#CC(=O)O` (stereo not shown) [Osirisyne I (3), osirisyne I], the IC50 on FynB wt (setting [2]) and at Yeast proteasome was > 41 µM in each case.
